Where two headings read alike, the source gives them in different places.

What all share (format): cell-based
Holding throughout (conditions): single active, 7 days after inoculation

Test [1] has as its system Septoria tritici. Put plainly: Microtest, activity against leaf blotch on wheat caused by Septoria tritici.
The subject of test [2] is Pyricularia oryzae.
In test [3] the test system is Microdochium nivale. Put plainly: Microtest, activity against Microdochium nivale.
Test [4] has as its system Rhizoctonia solani. Put plainly: Microtest, activity against Rhizoctonia solani.
The test system of test [5] is Pyrenophora teres. The test can be described thus: Microtest, activity against Pyrenophora teres.
Test [6] deals with Leptosphaeria nodorum. Put plainly: Microtest, activity against wheat leaf spots caused by Leptosphaeria nodorum.

In the case of `Fc1ccc([C@]2(Cn3cncn3)O[C@H]2c2ccccc2Cl)cc1` [Epoxiconazol], the Observed efficacy in test [1] (0.016 ppm) turned out to be 7; in test [2] (0.063 ppm) it was 1; in test [2] (0.25 ppm) it was 28; in test [3] (0.004 ppm), 8; in test [3] (0.016 ppm), 29; in test [4] (0.001 ppm), 0. Further, the Observed efficacy in test [4] (0.004 ppm) was 0; in test [4] (0.016 ppm), 24; in test [5] (0.016 ppm) it was 0.
Consider `COCC(=O)N(c1c(C)cccc1C)C(C)C(=O)OC` (centres unmarked) [Metalaxyl], for which the Observed efficacy in test [1] (1 ppm) and in test [1] (4 ppm) was 5 each time.
For `COC(=O)N(OC)c1ccccc1COc1ccn(-c2ccc(Cl)cc2)n1` [Pyraclostrobin], the Observed efficacy in test [6] (0.25 ppm) is 72; in test [5] (0.016 ppm), 34.
As for `CC1(C)CCC(=Cc2ccc(Cl)cc2)C1(O)Cn1cncn1` (centres unmarked) [Triticonazol], in test [1] (0.063 ppm), the Observed efficacy is given as 5.
`CN(C(=O)c1ccccc1)c1cccc(C(=O)Nc2c(Br)cc(C(F)(C(F)(F)F)C(F)(F)F)cc2C(F)(F)F)c1F` [carboxamide compound of formula I]: the Observed efficacy in test [1] (63 ppm) amounted to 11; in test [6] (4 ppm) it was 1; in test [5] (63 ppm), 20.

Source of the values: US11882827B2, “Agricultural mixtures comprising carboxamide compound” (BASF AGROCHEMICAL PRODUCTS B.V., priority 2013, dated 2024).
